Data reported in patent publication US6086918A, “Oral peptide pharmaceutical products” (Unigene Laboratories, Inc., priority 1998, dated 2000).

Columns and labels:
[1] = Pharmacokinetics of oral calcitonin (10.5 mg) in humans; format: in vivo, human; settings: 10 milligrams of salmon calcitonin alone administered to humans
Experimental: The capsules were coated for 20 min with hydroxypropylmethylcellulose phthalate 50 in a pan coater and stored at 4° C. Fasted subjects were given 1 capsule followed by a glass of orange juice in the morning of the study. Samples of blood were taken 15 minutes before taking the capsules and at the indicated times after taking the calcitonin capsule. The concentration of calcitonin in blood was determined by competitive radioimmunoassay.

[2] = Applicant's internal comparative tests of oral formulation, sCT versus PTH; format: in vivo; settings: oral formulation of the invention
[3] = cited from earlier work
[4] = Blood levels of salmon calcitonin after direct injection of active components into duodenum, ilium or colon; format: in vivo; settings: active components injected directly into the duodenum
Text: The acid is believed to lower the local intestinal pH (where the active agent has been released) to levels below the optimal range for many intestinal proteases. This decrease in pH reduces the proteolytic activity of the intestinal proteases, thus affording protection to the peptide from potential degradation. The activity of these proteases is diminished by the temporarily acidic environment provided by the invention. It is preferred that sufficient acid be provided that local intestinal pH is lowered temporarily to 5.5 or below, preferably 4.7 or below and more preferably 3.5 or below. The sodium bicarbonate test described below (in the section captioned "the pH-Lowering Agent") is indicative of the required acid amount. […] The absorption enhancers of the invention synergistically promote peptide absorption into the blood while conditions of reduced proteolytic activity prevail.

serum levels of salmon calcitonin [1]: no detectable serum levels
Tmax for blood levels of salmon calcitonin [4]: 5 to 15 min
SMILES: CC(C)C[C@H](NC(=O)[C@H](CCCCN)NC(=O)CNC(=O)[C@H](CC(C)C)NC(=O)[C@@H](NC(=O)[C@@H]1CSSC[C@H](N)C(=O)N[C@@H](CO)C(=O)N[C@@H](CC(N)=O)C(=O)N[C@@H](CC(C)C)C(=O)N[C@@H](CO)C(=O)N[C@@H]([C@@H](C)O)C(=O)N1)C(C)C)C(=O)N[C@@H](CO)C(=O)N[C@@H](CCC(N)=O)C(=O)N[C@@H](CCC(=O)O)C(=O)N[C@@H](CC(C)C)C(=O)N[C@@H](Cc1c[nH]cn1)C(=O)N[C@@H](CCCCN)C(=O)N[C@@H](CC(C)C)C(=O)N[C@@H](CCC(N)=O)C(=O)N[C@H](C(=O)N[C@@H](Cc1ccc(O)cc1)C(=O)N1CCC[C@H]1C(=O)N[C@@H](CCCNC(=N)N)C(=O)N[C@H](C(=O)N[C@@H](CC(N)=O)C(=O)N[C@H](C(=O)NCC(=O)N[C@@H](CO)C(=O)NCC(=O)N[C@H](C(=O)N1CCC[C@H]1C(N)=O)[C@@H](C)O)[C@@H](C)O)[C@@H](C)O)[C@@H](C)O [Salmon calcitonin]
bioavailability compared with parathyroid hormone [2]: significantly exceeds that of parathyroid hormone
peak levels at which some patients report gastrointestinal distress ([3]; in vivo): ≥ 200 picograms per milliliter
detectable blood levels after injection ([3]; injection at conventional dosages): no detectable blood levels more than two hours after injection
peak levels at which effective against osteoporosis ([3]; nasal, 200 International units): ≥ 10 picograms per milliliter
half-life ([3]; subcutaneous administration in man): 20 to 40 min
peak serum concentration ([3]; subcutaneous, 100 International units): about 250 picograms per milliliter
